Earlier results, collected in PMC7401249 (Marine Drugs, 2020).
“Also recorded” adds a separate entry of the source.

**Q.** Which “inhibition of CaV3.1 current over CaV3.2” value (CaV3.1) does the source give for ProTx-I here?
**A.** Its value is “selective inhibition”.

**Q.** Which results are given for ProTx-II?
**A.** NaV1.7 block (NaV1.7): NaV1.7 selective blocker; also recorded: inhibits NaV1.7; hCaV3.2 current block among three CaV3.x subtypes (hCaV3.2): selectively block the hCaV3.2 current
